# Laboratory results as given in patent publication US20240042045A1, “NANOPARTICLES CONTAINING MULTIPLE CLEAVABLE PRODUGS FOR CANCER THERAPY” (The University of Chicago, priority 2020, published 2024).
# Structures can show the parent of a compound that is named as a salt. Where two headings read alike, the source gives them in different places.
# Assays:
# Panc02 cells = assay: In vitro cytotoxicity in Panc02 cells (MTS assay); format: cell-based, murine
# Procedure: (§1) The cell viability was measured by MTS assay.
# LDL [1] = assay: Binding kinetics to LDL in rat plasma at 37° C.; details: for binding to LDL: Chol-SN38 measured for Chol-SN38 and OxPt/SN38
# CT26 cells = assay: In vitro cytotoxicity in CT26 cells; format: cell-based, murine
# Procedure: (§2) The cell viability was measured by […].
# lipoproteins = assay: Distribution in lipoproteins after incubation in rat plasma (NaBr gradient ultracentrifugation, LC-MS); details: 37° C., 3 h, Chol-SN38 measured for OxPt/SN38
# From the text: Lipoproteins were separated based on their densities by NaBr gradient ultracentrifugation.
# CT26 and MC38 cells [2] = tested on: CT26 and MC38 cells
# apoptosis/necrosis [3] = assay: Apoptosis/necrosis analysis by flow cytometry (Annexin V / PI); format: cell-based; details: for percentage of apoptosis: flow cytometry
# Procedure: Apoptosis/necrosis analysis was also performed on OxPt and/or SN38 treated cells by flow cytometry.
# KPC cells = assay: In vitro cytotoxicity in KPC cells (MTS assay); format: cell-based, murine; details: 48 h
# Procedure: as §1
# MC38 cells = assay: In vitro cytotoxicity in MC38 cells; format: cell-based, murine
# Procedure: as §2
# [4] = cited from earlier work
# [5] = Dynamic light scattering (DLS) of particles; format: physicochemical; details: DLS of OxPt/GEM-core nanoparticles made with the named Chol-disulfide prodrug
# Procedure: Synthesis and characterization of OxPt/GEM/SN38 core-shell nanoparticle NCP particles with OxPt-bp and gemcitabine monophosphate (GMP) in the core and Chol-SN38 on the shell, referred to as “OxPt/GMP/SN38,” was synthesized in two steps. […] An aqueous solution of Zn(NO3)2 (60 mg, 600 mg/mL) was added to a 5 mL of 0.3M Triton X-100/1.5M 1-hexanol in cyclohexane and stirred vigorously for 5 min. The Zn(NO3)2-containing microemulsion was added dropwise to the OxPt-bp-containing microemulsion and stirred vigorously for 30 min at room temperature. After the addition of 10 mL ethanol, OxPt-bare was obtained by centrifugation at 11,628×g. The resulting pellet was washed twice with THF/ethanol and finally re-dispersed in THF. The loadings of OxPt in the particles were determined by ICP-MS (Agilent 7700x, Agilent Technologies, Santa Clara, California, United States of America) after digestion with nitric acid. The particle size and zeta potential were determined by dynamic light scattering using a Zetasizer (Nano ZS, Malvern, United Kingdom).
# LL/2 lung cancer cells = assay: Cytotoxicity of Chol-PTX; format: cell-based
# H460 cells = assay: In vitro cytotoxicity in H460 cells (MTS assay); format: cell-based, human
# apoptosis/necrosis [6] = assay: Apoptosis/necrosis analysis of cells treated with Carb and/or DTX; format: cell-based; details: 10 μM Carb and/or DTX
# Procedure: Apoptosis/necrosis analysis was also performed on cells treated with 10 μM Carb and/or DTX by flow cytometry.
# 4T1 cells = assay: In vitro cytotoxicity in 4T1 cells (MTS assay); format: cell-based, murine; details: 48 h
# CT26 and MC38 cells [7] = assay: cells; details: Mus musculus
# CT26 and MC38 cells [8] = assay: In vitro cytotoxicity, values not assigned to one colon cancer cell line
# LDL [9] = assay: Isothermal titration calorimetry (ITC) binding to LDL
# Procedure: (§3) LDL is the key transporter of cholesterol and cholesterol esters to peripheral cells. It was hypothesized that LDL would strongly bind to Chol-SN38 to enhance its delivery to tumors via LDLR-mediated endocytosis.
# Apparent LDL binding affinity of two control particles, OxPt NCP without chol and Chol-SN38 micelle (without the NCP core) was determined to understand which components of the particles bind to LDL.
# albumin = albumin (Homo sapiens, UniProt P02768); assay: ITC binding to albumin
# Sequence of albumin (P02768 25-609, species assumed): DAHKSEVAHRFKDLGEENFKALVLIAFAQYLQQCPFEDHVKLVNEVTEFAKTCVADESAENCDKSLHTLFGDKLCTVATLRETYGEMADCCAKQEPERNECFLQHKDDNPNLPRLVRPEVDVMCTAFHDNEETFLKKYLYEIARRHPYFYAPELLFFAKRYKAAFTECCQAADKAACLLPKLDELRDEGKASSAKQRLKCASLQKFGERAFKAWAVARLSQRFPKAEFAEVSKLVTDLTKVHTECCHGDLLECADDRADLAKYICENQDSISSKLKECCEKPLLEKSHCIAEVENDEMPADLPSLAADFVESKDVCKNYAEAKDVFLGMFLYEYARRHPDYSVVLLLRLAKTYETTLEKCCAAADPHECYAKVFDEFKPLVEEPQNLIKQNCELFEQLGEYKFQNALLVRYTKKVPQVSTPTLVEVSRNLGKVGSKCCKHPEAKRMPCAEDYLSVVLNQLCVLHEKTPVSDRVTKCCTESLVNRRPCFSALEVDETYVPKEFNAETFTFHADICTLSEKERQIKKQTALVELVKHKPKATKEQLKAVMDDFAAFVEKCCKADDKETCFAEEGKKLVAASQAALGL
# From the text: as §3
# [10] = Conversion of SN38-TMS to SN38 at pH 5.5 and 7.4; format: physicochemical; details: for SN38-TMS converted to SN38: pH=5.5, 37° C.
# Procedure: SN38-TMS was incubated in acidic conditions mimicking endosomes at 37° C. At pH=5.5, 70% SN38-TMS was converted to SN38 in 24 h and 92% […] SN38-TMS was converted to SN38 in 48 h.
# [11] = Panc02 cells, 48 h, read-out: IC50
# [12] = CT26 cells, 48 h, for OxPt/SN38 the OxPt IC50, read-out: IC50
# [13] = MC38 cells, 48 h, for OxPt/SN38 the OxPt IC50, read-out: IC50
compound,measurement,setting,value
CCc1c2c(nc3ccc(O)cc13)-c1cc3c(c(=O)n1C2)COC(=O)[C@]3(O)CC [SN38],IC50,Panc02 cells; [11],0.17 ± 0.12 µM
same,binding to LDL,LDL [1],17.1±1.5%
same,IC50,CT26 cells; [12],0.22 ± 0.05 µM
same,distribution in HDL,lipoproteins,14%
same,distribution in LDL fraction,lipoproteins,17%
same,distribution in albumin fraction,lipoproteins,69%
same,IC50 of SN38,CT26 and MC38 cells [2]; cell line not stated,0.086 µg/mL
same,early apoptotic Annexin V+/PI− cells,apoptosis/necrosis [3],25.7±1.5%
same,percentage of apoptosis,apoptosis/necrosis [3],34.8%
same,IC50,"KPC cells; KPC cells, read-out: IC50",0.3 ± 0.09 µM
same,IC50,MC38 cells; [13],0.24 ± 0.08 µM
same,Log P,[4],3.37
CC[C@@]1(OC(=O)OCCSSCCOC(=O)O[C@H]2CC[C@@]3(C)C(=CC[C@H]4[C@@H]5CC[C@H]([C@H](C)CCCC(C)C)[C@@]5(C)CC[C@@H]43)C2)C(=O)OCc2c1cc1n(c2=O)Cc2cc3ccccc3nc2-1 [Chol-SS-CPT],PDI,[5],0.434
same,Z-Average (nm),[5],263.2 nm
"CC(=O)O[C@H]1C(=O)[C@]2(C)[C@@H](OC(=O)OCOC(=O)CCC(=O)O[C@H]3CC[C@@]4(C)C(=CC[C@H]5[C@@H]6CC[C@H]([C@H](C)CCCC(C)C)[C@@]6(C)CC[C@@H]54)C3)C[C@H]3OC[C@@]3(OC(C)=O)[C@H]2[C@H](OC(=O)c2ccccc2)[C@]2(O)C[C@H](OC(=O)[C@H](O)[C@@H](NC(=O)c3ccccc3)c3ccccc3)C(C)=C1C2(C)C [Chol-PTX, Cholesterol-Paclitaxel]",IC50,LL/2 lung cancer cells,3.95 µM
"N.N.O=C([O-])C1(C(=O)[O-])CCC1.[Pt+2] [Carb, carboplatin]",IC50,H460 cells; 48 h,3.9 µM
same,percentage of apoptosis,apoptosis/necrosis [6],2.90%
same,IC50,4T1 cells,0.91 µM
CCc1c2c(nc3ccc(OC(=O)N4CCC(N5CCCCC5)CC4)cc13)-c1cc3c(c(=O)n1C2)COC(=O)[C@]3(O)CC [irinotecan hydrochloride],Log P,[4],−0.45
CC(C)CCC[C@@H](C)[C@H]1CC[C@H]2[C@@H]3CC=C4C[C@@H](O)CC[C@]4(C)[C@H]3CC[C@]12C [cholesterol],Log P,[4],7.02
"CCc1c2c(nc3ccc(OC(=O)N4CCC(N5CCCCC5)CC4)cc13)-c1cc3c(c(=O)n1C2)COC(=O)[C@]3(O)CC [Irinotecan, irinotecan]",IC50,"CT26 cells; Mus musculus, CT26, 48 h, read-out: IC50",79.4 ± 6.94 µM
same,IC50,"MC38 cells; Mus musculus, MC-38, 48 h, read-out: IC50",88.4 ± 7.48 µM
same,IC50,CT26 and MC38 cells [7],~80 µM
"CC(=O)O[C@@]12CO[C@@H]1C[C@H](O)[C@@]1(C)C(=O)[C@H](O)C3=C(C)[C@@H](OC(=O)[C@H](OC(=O)OCOC(=O)CCC(=O)O[C@H]4CC[C@@]5(C)C(=CC[C@H]6[C@@H]7CC[C@H]([C@H](C)CCCC(C)C)[C@@]7(C)CC[C@@H]65)C4)[C@@H](NC(=O)OC(C)(C)C)c4ccccc4)C[C@](O)([C@@H](OC(=O)c4ccccc4)[C@H]21)C3(C)C [Chol-DTX, Cholesterol-Docetaxel]",IC50,"H460 cells; Homo sapiens, NCI-H460, 48 h",11.4 µM
same,IC50,4T1 cells; Mus musculus,15.3 µM
"Nc1ccn([C@@H]2O[C@H](CO)[C@@H](O)C2(F)F)c(=O)n1 [GEM, gemcitabine]",IC50,"Panc02 cells; Mus musculus, Panc02 cells, 48 h, read-out: IC50",0.11 ± 0.03 µM
same,IC50,"KPC cells; Mus musculus, KPC cells, read-out: IC50",0.67 ± 0.18 µM
"O=C1[O][Pt]2([NH][C@@H]3CCCC[C@H]3[NH]2)[O]C1=O [OxPt, oxaliplatin]",IC50,Panc02 cells; [11],14 ± 4.88 µM
same,IC50,CT26 cells; [12],9.11 ± 0.72 µM
same,early apoptotic Annexin V+/PI− cells,apoptosis/necrosis [3],8.0±0.6%
same,percentage of apoptosis,apoptosis/necrosis [3],12.1%
same,IC50,"KPC cells; KPC cells, read-out: IC50",5.94 ± 1.73 µM
same,IC50,MC38 cells; [13],11.4 ± 1.68 µM
"CCc1c2c(nc3ccc(O)cc13)-c1cc3c(c(=O)n1C2)COC(=O)C3(CC)OC(=O)OC(C)(C)C (stereo not shown) [SN38-Boc, 20-O-Boc-SN38]",cytotoxicity,CT26 and MC38 cells [2]; concentrations up to 300 μM,no cytotoxicity
"CC(=O)O[C@@]12CO[C@@H]1C[C@H](O)[C@@]1(C)C(=O)[C@H](O)C3=C(C)[C@@H](OC(=O)[C@H](O)[C@@H](NC(=O)OC(C)(C)C)c4ccccc4)C[C@@](O)([C@@H](OC(=O)c4ccccc4)[C@H]21)C3(C)C [DTX, docetaxel]",IC50,"H460 cells; Homo sapiens, NCI-H460, 48 h",3.69 µM
same,percentage of apoptosis,apoptosis/necrosis [6],3.30%
same,IC50,4T1 cells; Mus musculus,4.7 µM
CCc1c2c(nc3ccc(OC(=O)OC(C)(C)C)cc13)-c1cc3c(c(=O)n1C2)COC(=O)[C@@]3(CC)OC(=O)OCCSSCCOC(=O)O[C@H]1CC[C@@]2(C)C(=CC[C@H]3[C@@H]4CC[C@H]([C@H](C)CCCC(C)C)[C@@]4(C)CC[C@@H]32)C1 [Chol-SS-SN38-Boc],PDI,[5],0.211
same,Z-Average (nm),[5],96.79 nm
gemcitabine monophosphate [GMP],IC50,Panc02 cells; [11],0.06 ± 0.02 µM
same,IC50,"KPC cells; KPC cells, read-out: IC50",0.3 ± 0.07 µM
CCc1c2c(nc3ccc(OC(=O)OCCSSCCOC(=O)O[C@H]4CC[C@@]5(C)C(=CC[C@H]6[C@@H]7CC[C@H]([C@H](C)CCCC(C)C)[C@@]7(C)CC[C@@H]65)C4)cc13)-c1cc3c(c(=O)n1C2)COC(=O)[C@@]3(CC)O[Si](C)(C)C [Chol-SS-SN38],PDI,[5],0.38
same,Z-Average (nm),[5],172.3 nm
"CCc1c2c(nc3ccc(OC(=O)OCOC(=O)CCC(=O)O[C@H]4CC[C@@]5(C)C(=CC[C@H]6[C@@H]7CC[C@H]([C@H](C)CCCC(C)C)[C@@]7(C)CC[C@@H]65)C4)cc13)-c1cc3c(c(=O)n1C2)COC(=O)[C@@]3(CC)O[Si](C)(C)C [Chol-SN38, 7-ethyl-10-(((((cholest-5-en-3-oxy)-4-oxobutanoyl)oxy)methoxy)-carbonyl)oxyl-20-O-trimethylsilyl camptothecin]",IC50,"Panc02 cells; Mus musculus, Panc02, 48 h",14.6 ± 4.87 µM
same,cytotoxicity relative to irinotecan,CT26 and MC38 cells [8],5-10 times
same,time to reach equilibrium binding to LDL,LDL [1],≤ 1 h
same,binding to LDL,LDL [1],74.5±3.6%
same,Ka to LDL relative to binding affinity to albumin,LDL [9],> 2000 times
same,binding constant (Ka) to LDL,"LDL [9]; ITC, apparent Ka for the particle",(4.97±0.24)×10^5 M^−1
same,Binding affinity Ka,LDL [9]; protein LDL,49.7 ± 2.43 10^4 M^−1
same,IC50,"CT26 cells; Mus musculus, CT26, 48 h, CT26 cells, 48 h, for OxPt/SN38 the OxPt IC50",7.41 ± 1.03 µM
same,distribution in HDL,lipoproteins,5%
same,distribution in LDL fraction,lipoproteins,86%
same,distribution in VLDL,lipoproteins,9%
same,IC50,KPC cells; Mus musculus,3.18 ± 1.01 µM
same,IC50,"MC38 cells; Mus musculus, MC-38, 48 h, MC38 cells, 48 h, for OxPt/SN38 the OxPt IC50",10.2 ± 1.99 µM
same,Kd,albumin,4440 µM
"CCc1c2c(nc3ccc(O)cc13)-c1cc3c(c(=O)n1C2)COC(=O)[C@@]3(CC)O[Si](C)(C)C [SN38-TMS, 20-O-Trimethylsilyl SN38]",SN38 released from SN38-TMS,"[10]; pH 7.4, 24 h",26%
same,SN38 released from SN38-TMS,"[10]; pH 7.4, 48 h",63%
same,SN38-TMS converted to SN38,[10]; 24 h,70%
same,SN38-TMS converted to SN38,[10]; 48 h,92%
